US20130184337A1, “SODIUM ASCORBATE STIMULATION OF ELASTOGENESIS” (THE HOSPITAL FOR SICK CHILDREN, priority 2012, published 2013)
“Also recorded” adds a separate entry of the source.

Key:
Format in all cases: cell-based, human
[1] = tested on: explants of dermal scars; assay: Organ culture of skin explants (histochemistry, insoluble elastin); settings: 200 μM SA
Method: Organ culture of skin explants—Fragments of normal skin, stretch-marked skin and dermal scars collected during plastic surgery procedures were cut into multiple 4 mm2 pieces and maintained for 7 days in DMEM medium containing 5% FBS, […] The parallel quadruplicate explants from each experimental group were additionally maintained in the presence 2 μCi of [3H]-valine/ml and then subjected to the assay of insoluble elastin. The parallel explants from each experimental groups were also evaluated after pentachrome Movat's staining which allows for clear marking of elastic fibers. In each experimental group, 50 sections derived from quadruplicate explants were analyzed.

[2] = tested on: normal dermal fibroblasts; assay: Collagen fiber deposition (immuno-staining of collagen type I, morphometry); settings: 100 μM, 24-hour-old cultures, 5% FBS
Method: Cell Cultures—Fibroblasts initially grew out from the explants of these full thickness skin biopsies and were maintained. The primary cultures of fat-derived fibroblasts obtained from Thermogenesis (Rancho Cordova, Calif.) were also tested. In all described experiments, 2-4 passages of both kinds of fibroblasts were used. In experiments aimed at assessing ECM production, cells were initially plated at a concentration of 100,000 cells/dish. Confluent cultures were then maintained either in serum-free medium (DMEM) or in medium supplemented with 5% FBS in the presence of different reagents that were added 1 hour before treatments with SA.
Immuno-staining—All cultures maintained in the presence and absence of indicated reagents were either fixed in cold 100% methanol at −20° C. (for detection of elastin) or in 4% paraformaldehyde at room temperature (for detection of collagen I). The multiple parallel cultures were then incubated with 10 μg/ml of polyclonal antibody to tropoelastin (Elastin Products, Owensville, Mich.), or polyclonal antibody to collagen type I (Chemicon, Temecula, Calif.). Cultures were then incubated with the respective fluorescein-conjugated goat anti-rabbit, goat anti-mouse, or rabbit anti-goat secondary antibodies. Nuclei were counterstained with propidium iodide (Sigma, Sigma, St. Louis, Mo.). All of the cultures were then examined with a Nikon Eclipse E1000 microscope attached to a cooled CCD camera (QImaging, Retiga EX) and analyzed by the computer-generated morphometric analysis system (Image-Pro Plus software, Media Cybernetics, Silver Springs, Md.) as previously described.

[3] = tested on: normal skin explants; assay: Organ culture of skin explants (Movat pentachrome morphometry, insoluble elastin); settings: 200 μM, 10-day-long daily treatment
Method: Organ culture of skin explants—Fragments of normal skin, stretch-marked skin and dermal scars collected during […] 5% FBS, in the presence or absence of 200 μM SA alone or in combination with 200 μM DMOG as described in figure legends. The parallel quadruplicate explants from each experimental group were additionally maintained in the presence 2 μCi of [3H]-valine/ml and then subjected to the assay of insoluble elastin. The parallel explants from each experimental groups were also evaluated after pentachrome Movat's staining which allows for clear marking of elastic fibers. In each experimental group, 50 sections derived from quadruplicate explants were analyzed.

[4] = tested on: insulin receptor; assay: Insulin receptor phosphorylation (immuno-precipitation, anti-phospho-tyrosine Western blot); settings: 100 μM SA, basic or insulin-induced
Method: At the end of each experiment cells were submerged in the lysis buffer containing a broad-range phosphatase inhibitor. The polyclonal antibodies recognizing either the β subunits of the IGF-IR or the β subunit of the insulin receptor were immobilized on separate sets of the IgG-bearing magnetic beads (Invitrogen Canada Inc, Burlington, ON) and then incubated for 1 hour with the aliquots of the cell lysates containing 400 μg of protein as described in the manufacturer protocol. The beads bearing the resulting immuno-precipitation products were re-suspended in sample buffer and the released proteins were resolved with SDS-PAGE and subjected to Western blotting with a monoclonal anti-p-Tyr (PY99) antibody from Santa Cruz Biotechnology Inc. (Santa Cruz, Calif.) and then with HRP-conjugated goat anti-mouse secondary antibody.

[5] = tested on: fat tissue-derived fibroblasts; assay: Elastin deposition (immuno-staining morphometry, insoluble elastin assay) in fat-derived fibroblasts; settings: 50-200 μM, on average, p<0.01
Method: Cell Cultures-Fibroblasts initially grew out from the explants of these full thickness skin biopsies and were maintained. The primary cultures of fat-derived fibroblasts obtained from Thermogenesis (Rancho Cordova, Calif.) were also tested. In all described experiments, 2-4 passages of both kinds of fibroblasts were used. In experiments aimed at assessing ECM production, cells were initially plated at a concentration of 100,000 cells/dish. […] Immuno-staining-All cultures maintained in the presence and absence of indicated reagents were either fixed in cold 100% methanol at -20° C. (for detection of elastin) or in 4% paraformaldehyde at room temperature (for detection of collagen I). The multiple parallel cultures were then incubated with 10 μg/ml of polyclonal antibody to tropoelastin (Elastin Products, Owensville, Mich.), or polyclonal antibody to collagen type I (Chemicon, Temecula, Calif.). […] All of the cultures were then examined with a Nikon Eclipse […] microscope attached to a cooled CCD camera (QImaging, Retiga EX) and analyzed by the computer-generated morphometric analysis system (Image-Pro Plus software, Media Cybernetics, Silver Springs, Md.) as previously described. Quantitative Assays of Insoluble Elastin-Fibroblasts were grown to confluency in 35-mm culture dishes (100,000 cells/dish). […]

[6] = tested on: explants of dermal stretch marks; assay: Organ culture of skin explants (Movat pentachrome morphometry, insoluble elastin); settings: 200 μM, 10-day-long daily treatment
Method: The parallel quadruplicate explants from each experimental group were additionally maintained in the presence 2 μCi of [3H]-valine/ml and then subjected to the assay of insoluble elastin. The parallel explants from each experimental groups were also evaluated after pentachrome Movat's staining which allows for clear marking of elastic fibers. In each experimental group, 50 sections derived from quadruplicate explants were analyzed.

[7] = tested on: fibroblasts derived from dermal stretch marks; assay: Collagen and elastic fiber deposition in stretch-mark fibroblast cultures; settings: 200 μM, 24 hour-old cultures
Method: Cell Cultures-Fibroblasts initially grew out from the explants of these full thickness skin biopsies and were maintained. The primary cultures of fat-derived fibroblasts obtained from Thermogenesis (Rancho Cordova, Calif.) were also tested. In all described experiments, 2-4 passages of both kinds of fibroblasts were used. In experiments aimed at assessing ECM production, cells were initially plated at a concentration of 100,000 cells/dish. […] Immuno-staining-All cultures maintained in the presence and absence of indicated reagents were either fixed in cold 100% methanol at -20° C. (for detection of elastin) or in 4% paraformaldehyde at room temperature (for detection of collagen I). The multiple parallel cultures were then incubated with 10 μg/ml of polyclonal antibody to tropoelastin (Elastin Products, Owensville, Mich.), or polyclonal antibody to collagen type I (Chemicon, Temecula, Calif.). Cultures were then incubated with the respective fluorescein-conjugated goat anti-rabbit, goat anti-mouse, or rabbit anti-goat secondary antibodies. Nuclei were counterstained with propidium iodide (Sigma, Sigma, St. Louis, Mo.). All of the cultures were then examined with a Nikon Eclipse […] microscope attached to a cooled CCD camera (QImaging, Retiga EX) and analyzed by the computer-generated morphometric analysis system (Image-Pro Plus software, Media Cybernetics, Silver Springs, Md.) as previously described. Quantitative Assays of Insoluble Elastin-Fibroblasts were grown to confluency in 35-mm culture dishes (100,000 cells/dish). Next, 2 μCi of [3H]-valine/ml (Amersham Biosciences Ltd. Oakville, Canada), were added to each dish along with or without the indicated treatments. At the end of each experiment, the levels of metabolically labeled NaOH-insoluble elastin present in individual cultures were assayed and normalized per their DNA content.

## O=C1O[C@H]([C@@H](O)CO)C([O-])=C1O.[Na+] [SA, (+)-sodium L-ascorbate]
[1]
  production of new elastic fibers: initiated production of new elastic fibers
[2]
  deposition of immuno-detected collagen fibers: more potent up-regulation in the deposition of immuno-detected collagen fibers than 100 μM AA; also recorded: more potent upregulation in collagen fibers deposition than 100 μM AA
[3]
  deposition of new elastic fibers: enhanced deposition of new elastic fibers
[4]
  phosphorylation of insulin receptor: did not induce heightened phosphorylation; also recorded: does not enhance basic or insulin-induced phosphorylation of insulin receptor
[5]
  increase in elastin deposition: 22%+/−4%
[6]
  elastogenesis: restored the practically non-existent elastogenesis
[7]
  production of collagen fibers: significantly up-regulated
  production of elastic fibers / elastogenesis: significantly up-regulated
